Measurements as given in patent US20060130244A1, “Aqueous composition for dyeing keratin fibres comprising a dye and a specific block copolymer” (priority 2004, published 2006).

What was measured:
[1] = Stability of dye in alkaline oxidizing medium (test tube, visual coloration); format: physicochemical; conditions: ammoniacal solution
Protocol: The dye tested is Basic Red 76.
In a first trial, an ammoniacal solution at 0.04% by weight of dye at pH=9 was added to a test tube and the solution was left to stand for 1 hour.
In a second trial, an ammoniacal solution at 0.04% by weight of dye at pH=9 was added to a test tube in the presence of a poly(sodium acrylate-b-acrylamide) diblock copolymer, in which each block has, respectively, a number-average molecular mass of 5000 and 30 000, and in the presence of aqueous hydrogen peroxide at 3%, and the mixture is left to stand for 1 hour.

[2] = Solubility of dye in aqueous medium (test tube, visual appearance); format: physicochemical
Protocol: The dye tested is Astrazon Orange R (or Basic Orange 22).
In a first trial, an aqueous solution comprising 0.04% of dye is added to a test tube.
In a second trial, a solution comprising 0.04% of dye, followed by 0.05% by weight of a poly(sodium acrylate-b-acrylamide) diblock copolymer (copolymer of Example 2), are added to a test tube. […] This thus attests to the ability of the block polymers in accordance with the invention to increase the solubility of dyes that are difficult to solubilize in an aqueous medium.

Compound | coloration of the solution after standing 1 hour, dye alone ([1]; 0.04% by weight of dye, pH 9, no copolymer) | coloration of the solution after standing 1 hour, with block copolymer ([1]; 0.04% dye, pH 9, with poly(sodium acrylate-b-acrylamide) diblock copolymer (5000/30 000) and 3% aqueous hydrogen peroxide) | appearance of aqueous solution, with block copolymer ([2]; 0.04% of dye plus 0.05% by weight poly(sodium acrylate-b-acrylamide) diblock copolymer) | appearance of aqueous solution, dye alone ([2]; aqueous solution, 0.04% of dye, no copolymer)
COc1ccccc1N=Nc1c(O)ccc2ccc([N+](C)(C)C)cc12.[Cl-] [Basic Red 76] | visible loss of coloration | remains stable | – | –
Astrazon Orange R | – | – | clear solution | cloudy appearance
